Molecules are shown by their SMILES.

One assay has as its system Period1 gene. The assay is described as follows: Period1 gene expression in cultured skin fibroblastic cells. It counts as cell-based, human. How it is done: As the cultured human fibroblastic cells, fibroblastic cells from normal human skin were purchased (Cell Application, Inc.) and used in the experiments. They were inoculated in DMEM medium supplemented with 10% FBS, 20 mM HEPES, Glutamax and antibacterial agents and cultured at 37° C. in 5% CO2. On the 6th day of culture, 50 ng/mL of cortisol or 10 μM of forskolin was added, and the samples were harvested at various times after time 0, which was defined as the time immediately after the addition of cortisol or forskolin. RNA was extracted from the cells with a commercially available RNA extraction kit, and the amounts of expression of the intended genes were measured by RT-PCR technology using commercially available PCR primers (Perfect Real Time Primer, Takara Bio). As for clock genes, amounts of expression of Period (represented by Period1) and Bmal1, which are involved in the core system, were determined. Similarly, the amounts of expression of a housekeeping gene RPLP0 were quantified and used as an internal standard to calculate the relative expression of the intended genes to RPLP0. […]

The test system of the next assay is Bmal1 gene. The assay is described as follows: Bmal1 gene expression (RT-PCR, relative to RPLP0) in cultured human skin fibroblastic cells. It counts as cell-based. The following applies: expression at 2 and 16 hours after stimulation. How it is done: As the cultured human fibroblastic cells, fibroblastic cells from normal human skin were purchased (Cell Application, Inc.) and used in the experiments. They were inoculated in DMEM medium supplemented with 10% FBS, 20 mM HEPES, Glutamax and antibacterial agents and cultured at 37° C. in 5% CO2. On the 6th day of culture, 50 ng/mL of cortisol or 10 μM of forskolin was added, and the samples were harvested at various times after time 0, which was defined as the time immediately after the addition of cortisol or forskolin. RNA was extracted from the cells with a commercially available RNA extraction kit, and the amounts of expression of the intended genes were measured by RT-PCR technology using commercially available PCR primers (Perfect Real Time Primer, Takara Bio). As for clock genes, amounts of expression of Period (represented by Period1) and Bmal1, which are involved in the core system, were determined. Similarly, the amounts of expression of a housekeeping gene RPLP0 were quantified and used as an internal standard to calculate the relative expression of the intended genes to RPLP0. […] Test substances were evaluated for the expression modulating effect on a Bmal gene based on the amount of gene expression at 16 hours after stimulation. […]

As for `C=C1CC/C=C(\C)CC[C@@H]2[C@@H]1CC2(C)C` [beta-Caryophyllene], in the assay on Period1 gene, the “Induction of Period gene expression rhythm or promotion of its expression (in words)” value is recorded as “can induce expression rhythm of a Period gene or promote its expression”. On to `C[C@]12CCC(=O)C=C1CC[C@@H]1[C@@H]2[C@@H](O)C[C@@]2(C)[C@H]1CC[C@]2(O)C(=O)CO` [cortisol], for which, in the assay with Bmal1 gene, the “Induction of Bmal1 expression rhythm and increase of Bmal1 gene expression (in words)” value is given as “significantly increase amounts of gene expression of Bmal1”.
